This note sets out measurements from patent US6642250B2, “1,8-naphthyridin-2(1H)-one derivatives” (Grelan Pharmaceutical Co., Ltd., priority 1999, dated 2003).

The test system of one data set is PDE I. The data set can be described thus: PDE inhibition, type I PDE (cGMP substrate, calmodulin/CaCl2 added). The data set is classed as biochemical. The settings on record: PDE I from porcine hearts, cGMP 1 μM; read-out: Inhibition of PDE Isoenzymes (IC50) I. Here is the method:
(§1) The assays for PDE activity were conducted according to Nicholson et al. method (Br. J. Pharmacol., 97, 889 (1989)).
(§2) Among PDE isozymes, type I, II, III and IV PDEs as used herein were separated from porcine hearts by using an anion exchange chromatography. Type V PDE was also separated from porcine aortae with an anion exchange chromatography and used herein.
(§3) Each PDE isozyme was admixed with ethylene glycol (EG) to adjust the final EG concentration to 30%, then stored at −20° C. and diluted when used. The enzymatic activity for PDE I and V was measured using cGMP as a substrate while that for POE II, III and IV was measured using cAMP.
(§4) [^3H]-cAMP (962 GBq/mmol; Amersham, 25 μl (100,000 cpm)) or [^3H]-cGMP (962 GBq/mmol; Amersham, 25 μl (100,000 cpm)) was added together with each PDE isozyme (25 μl) to an incubation buffer solution with the composition given below to adjust the total volume to 250 μl. Each test compound was dissolved in DMSO to adjust the final concentration to 1% (2.5 μl/tube).
(§5) Incubation buffer solution (pH7.5):
(§6) Tris-HCl (50 mM), magnesium chloride (6 mM), dithiothreitol
(§7) (2.5 mM), 5-nucleotidase (4 μg/ml), bovine serum albumin
(§8) (0.23 mg/ml), and cAMP (1 μM) [or cGMP (1 μM)]
(§9) A mixture of the aforementioned test compound solution and the buffer solution was incubated at 30° C. for 20 minutes. The reaction was quenched by admixing with 1 ml of anion exchange resin slurry (AG1-X8, 200-400 meshes, chloride form; Bio-Rad) to absorb unreacted substrates.
(§10) After the reaction stopped, the mixture was centrifuged at 200×g for 10 minutes, and the resulting supernatant was collected with vials in 250 μl aliquots. To each vial was added 5 ml of ACS-II (scintillator, Amersham). The radioactivity was measured with a liquid scintillator counter for [^3H]-adenosine or [^3H]-guanosine and set as the PDE activity. The measurements were conducted under conditions wherein the enzymatic activity was elevated by adding calmodulin (20 U/ml; Amersham) and calcium chloride (0.1 mM) for PDE-I and cGMP (1 μM) for PDE II, respectively.
(§11) The % inhibition was calculated for test compounds, and IC50 (the concentration of each test compound required for 50% inhibition) was obtained by Probit method. The aforementioned rolipram ((−)-isomer, optical purity: 91% e.e.) known as the PDE IV inhibitor in the prior art was used for the reference compound in this assay.

For a further data set, the target named is T1, PDE II (Sus scrofa, UniProt F1SUV3).
T1 sequence (F1SUV3 1-945): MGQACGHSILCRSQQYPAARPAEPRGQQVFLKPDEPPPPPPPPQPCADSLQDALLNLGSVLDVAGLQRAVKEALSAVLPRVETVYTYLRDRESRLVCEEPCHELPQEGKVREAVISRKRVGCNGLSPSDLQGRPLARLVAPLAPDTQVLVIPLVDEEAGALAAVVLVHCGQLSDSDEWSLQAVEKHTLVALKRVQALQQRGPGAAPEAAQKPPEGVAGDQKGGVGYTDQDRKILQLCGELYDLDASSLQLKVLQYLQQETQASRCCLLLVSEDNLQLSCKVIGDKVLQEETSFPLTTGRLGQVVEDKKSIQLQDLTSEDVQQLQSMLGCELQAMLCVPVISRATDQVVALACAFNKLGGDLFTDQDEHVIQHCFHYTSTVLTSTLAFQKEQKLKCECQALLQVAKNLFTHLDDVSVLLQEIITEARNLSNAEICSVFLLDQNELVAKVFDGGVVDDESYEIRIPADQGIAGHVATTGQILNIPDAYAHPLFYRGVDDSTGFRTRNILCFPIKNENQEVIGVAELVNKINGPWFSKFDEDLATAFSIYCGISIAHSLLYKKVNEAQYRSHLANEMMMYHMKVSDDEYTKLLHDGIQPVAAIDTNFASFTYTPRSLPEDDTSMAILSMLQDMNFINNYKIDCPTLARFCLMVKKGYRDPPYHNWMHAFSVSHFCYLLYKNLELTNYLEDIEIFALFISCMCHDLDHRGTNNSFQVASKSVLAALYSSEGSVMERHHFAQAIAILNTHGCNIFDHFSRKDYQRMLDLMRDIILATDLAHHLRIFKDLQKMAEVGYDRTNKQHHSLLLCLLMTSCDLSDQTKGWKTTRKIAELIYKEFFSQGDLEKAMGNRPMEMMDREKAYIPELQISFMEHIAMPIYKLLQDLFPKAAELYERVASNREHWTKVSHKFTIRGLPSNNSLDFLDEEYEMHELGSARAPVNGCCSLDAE
Kind of data set: PDE inhibition, type II PDE (cAMP substrate, cGMP added). The class given is biochemical. The note with it: PDE II from porcine hearts, cAMP 1 μM; read-out: Inhibition of PDE Isoenzymes (IC50) II. Here is the method: as §1, §2, §3, §4, §5, §6, §7, §8, §9, §10, §11

The test system of a further data set is Female beagles. The data set is classed as in vivo. The settings on record: fed female beagles, oral, emesis within 3 hours. Here is the method: Female beagles (each group consisting of 3 dogs) as used herein were fed. One hour later, a suspension of each test compound in 0.5% CMC—Na solution was administered orally to the animals in a forced manner. […] Next, each maximum tolerance dose against emesis was obtained. […]

The target in the next data set is T2, PDE V (Sus scrofa, UniProt A0A287B475).
T2 construct: Type V PDE was also separated from porcine aortae with an anion exchange chromatography and used herein
Kind of data set: PDE inhibition, type V PDE (cGMP substrate). The class given is biochemical. The settings on record: PDE V from porcine aortae, cGMP 1 μM; read-out: Inhibition of PDE Isoenzymes (IC50) V. How it is done:
as §1, §2, §3, §4, §5, §6, §7, §8, §9, §10, §11

For `COc1ccc(C2CNC(=O)C2)cc1OC1CCCC1` (single isomer, unassigned) [Rolipram, rolipram, reference compound], the IC50 in the data set on PDE I and at PDE II was above 100 µM in each case. Besides, in the data set with Female beagles, the “Maximum Tolerance Dose against Emesis” value is on record as below 0.1 mg/kg.
Consider `O=c1c(Cc2cccnc2)cc2cccnc2n1-c1cccc([N+](=O)[O-])c1` [Example No. 2, 1-(3-Nitrophenyl)-3-(pyridin-3-ylmethyl)-1,8-naphthyridin-2(1H)-one], for which the values for the IC50 in the data set on PDE I, on PDE II and at PDE V were above 100 µM, above 100 µM and 16 µM, respectively.
On to `O=c1c(CCc2cccnc2)cc2cccnc2n1-c1cccc([N+](=O)[O-])c1` [Example No. 5, 1-(3-Nitrophenyl)-3-[2-(pyridin-3-yl)ethyl]-1,8-naphthyridin-2(1H)-one], for which the IC50 (usually the concentration that gives 50% inhibition) was 22 µM in the data set on PDE I, above 100 µM on PDE II and 13 µM on PDE V.
On the same counts, the results for `O=c1c(CCc2ccncc2)cc2cccnc2n1-c1cccc([N+](=O)[O-])c1` [Example No. 6, 1-(3-Nitrophenyl)-3-[2-(pyridin-4-yl)ethyl]-1,8-naphthyridin-2(1H)-one] are above 100 µM, above 100 µM and 15 µM.
For `O=c1c(CCCc2cccnc2)cc2cccnc2n1-c1cccc([N+](=O)[O-])c1` [Example No. 7, 1-(3-Nitrophenyl)-3-[3-(pyridin-3-yl)propyl]-1,8-naphthyridin-2(1H)-one] the same measures were above 100 µM, above 100 µM and 4.7 µM.
In the case of `O=c1c(CCCc2ccncc2)cc2cccnc2n1-c1cccc([N+](=O)[O-])c1` [Example No. 8, 1-(3-Nitrophenyl)-3-[3-(pyridin-4-yl)propyl]-1,8-naphthyridin-2(1H)-one], the IC50 with PDE I, on PDE II and at PDE V was above 100 µM in each case. The “Maximum Tolerance Dose against Emesis” value in the data set with Female beagles worked out at 0.3 mg/kg.
Turning to `CSc1cccc(-n2c(=O)c(CCCc3ccncc3)cc3cccnc32)c1` [Example No. 10, 1-(3-Methylthiophenyl)-3-[3-(pyridin-4-yl)propyl]-1,8-naphthyridin-2(1H)-one], the 50% inhibitory concentration (IC50) was above 100 µM in the data set on PDE I, 52 µM at PDE II and 13 µM on PDE V.
For `O=c1c(CCCCc2cccnc2)cc2cccnc2n1-c1cccc([N+](=O)[O-])c1` [Example No. 14, 1-(3-Nitrophenyl)-3-[4-(pyridin-3-yl)butyl]-1,8-naphthyridin-2(1H)-one] the same measures were 83 µM, 85 µM and 5.1 µM.
On the same counts, the results for `O=c1c(CCCCCc2cccnc2)cc2cccnc2n1-c1cccc([N+](=O)[O-])c1` [Example No. 16, 1-(3-Nitrophenyl)-3-[5-(pyridin-3-yl)pentyl]-1,8-naphthyridin-2(1H)-one] are 98 µM, 63 µM and 7.4 µM.
With `O=c1c(CCCc2ccncc2)cc2cccnc2n1-c1cccnc1` [Example No. 23, 1-(Pyridin-3-yl)-3-[3-(pyridin-4-yl)propyl]-1,8-naphthyridin-2(1H)-one], the concentration for half-maximal inhibition (IC50) in the data set on PDE I, at PDE II and on PDE V was above 100 µM each time.
